Source: ChEMBL document CHEMBL3046312, “Synthesis and biologic evaluation of new 3-phenoxyazetidin-2-one derivatives as selective cyclooxygenase-2 inhibitors” (Med Chem Res, 2013)

Molecular target: T1, Prostaglandin G/H synthase 1 (Ovis aries, UniProt P05979)
T1 sequence (P05979 whole entry): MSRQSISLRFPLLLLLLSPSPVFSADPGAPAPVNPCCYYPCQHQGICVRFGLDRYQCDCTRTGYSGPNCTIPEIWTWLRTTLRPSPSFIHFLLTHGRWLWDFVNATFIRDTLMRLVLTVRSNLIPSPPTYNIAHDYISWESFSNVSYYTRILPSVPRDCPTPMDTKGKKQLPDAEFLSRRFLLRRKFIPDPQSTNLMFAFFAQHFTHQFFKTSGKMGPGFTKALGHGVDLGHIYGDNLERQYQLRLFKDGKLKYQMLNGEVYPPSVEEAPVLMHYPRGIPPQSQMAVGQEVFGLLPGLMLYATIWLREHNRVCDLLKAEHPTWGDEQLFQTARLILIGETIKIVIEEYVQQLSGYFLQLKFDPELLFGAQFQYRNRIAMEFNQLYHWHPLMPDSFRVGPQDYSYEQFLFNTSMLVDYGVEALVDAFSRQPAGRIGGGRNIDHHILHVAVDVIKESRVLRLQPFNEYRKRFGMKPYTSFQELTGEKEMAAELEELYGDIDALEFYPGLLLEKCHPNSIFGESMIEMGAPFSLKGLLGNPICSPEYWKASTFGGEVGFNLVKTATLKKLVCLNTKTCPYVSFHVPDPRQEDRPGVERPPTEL
Test: Inhibition of Ovis aries (sheep) cyclooxygenase-1 using arachidonic acid as substrate by chemiluminescent assay

Row | IC50 | SMILES
1 | 18.1 µM | Cc1ccc(N2C(=O)[C@@H](Oc3ccccc3)[C@H]2c2ccc(S(C)(=O)=O)cc2)cc1 (relative stereo)
2 | 18.3 µM | CS(=O)(=O)c1ccc([C@@H]2[C@H](Oc3ccccc3)C(=O)N2c2ccc(Cl)cc2)cc1 (relative stereo)
3 | 19 µM | CS(=O)(=O)c1ccc([C@@H]2[C@H](Oc3ccccc3)C(=O)N2c2ccc(F)cc2)cc1 (relative stereo)
4 | 19.9 µM | CS(=O)(=O)c1ccc([C@@H]2[C@H](Oc3ccccc3)C(=O)N2c2ccccc2)cc1 (relative stereo)

The next lines start with the molecule.

Row | SMILES | IC50
5 | CC(C)N1C(=O)[C@@H](Oc2ccccc2)[C@H]1c1ccc(S(C)(=O)=O)cc1 (relative stereo) | 21.8 µM
6 | CS(=O)(=O)c1ccc([C@@H]2[C@H](Oc3ccccc3)C(=O)N2C2CCCCC2)cc1 (relative stereo) | 19.5 µM
7 | CCCCCN1C(=O)[C@@H](Oc2ccccc2)[C@H]1c1ccc(S(C)(=O)=O)cc1 (relative stereo) | 21.2 µM
8 | CCCN1C(=O)[C@@H](Oc2ccccc2)[C@H]1c1ccc(S(C)(=O)=O)cc1 (relative stereo) | 21.7 µM
9 | CCCCN1C(=O)[C@@H](Oc2ccccc2)[C@H]1c1ccc(S(C)(=O)=O)cc1 (relative stereo) | 20.9 µM
10 | COc1ccc(N2C(=O)[C@@H](Oc3ccccc3)[C@H]2c2ccc(S(C)(=O)=O)cc2)cc1 (relative stereo) | 19.2 µM
